Results as given in patent US6506799B1, “Methods of treating cardiovascular diseases, dyslipidemia, dyslipoproteinemia, and hypertension with ether compounds” (Esperion Therapeutics, Inc., priority 1999, dated 2003).

Assays:
female obese Zucker rats = experiment: Experiment A: serum lipids, glucose, non-esterified fatty acids and weight gain in obese female Zucker rats after seven days; format: in vivo, rat; settings: 86 mg/kg
Procedure: Dosing vehicle, Compound A (86 mg/kg of body weight) or troglitazone (120 mg/kg of body weight) was administered to eight week old female obese Zucker rats daily for seven days in the morning by oral gavage in 1.5% carboxymethylcellulose/0.2% Tween-20. Troglitazone was obtained commercially. Finely crushed tablets were suspended in vehicle for dosing. Orbital blood samples were obtained following a six-hour fast prior to the initial dose and also following the seventh dose.
Blood serum was assayed for total cholesterol and triglycerides (FIG. 5), lipoprotein cholesterol profiles (FIG. 6), VLDL plus LDL cholesterol combined (also referred to as apo B containing lipoprotein cholesterol or non-HDL cholesterol), HDL cholesterol, and the ratio of HDL cholesterol to that of VLDL plus LDL cholesterol (FIG. 7), serum glucose, and non-esterified fatty acids (FIG. 8), and percent weight gain (FIG. 9). […] In particular, Compound A caused a marked elevation in HDL cholesterol after one week of treatment. Using the serum total cholesterol values (FIG. 5A) and the lipoprotein cholesterol distribution (FIG. 6), the amount of cholesterol associated with non-HDL (i.e., VLDL plus LDL) and HDL were determined (FIG. 7). […] In contrast, troglitazone reduced non-HDL and HDL cholesterol by 67% and 4%, respectively.

[1] = test system: LDL receptor deficient mice; experiment: Lipoprotein cholesterol profile in LDL receptor-deficient mice; format: in vivo; settings: 300 mg/kg/day, chow-fed female mice
From the text: The effect of Compound A on LDL levels in a murine model of homozygous familial hypercholesterolemia (Ishibashi et al., 1993, J. Clin. Invest. 92:883-893; Ishibashi et al., 1994, J. Clin. Invest. 93:1885-1893) was studied. LDL receptor-deficient mice have elevated LDL cholesterol relative to wild type mice when fed a chow diet. When fed cholesterol-enriched diets, these mice develop atherosclerosis.

[2] = test system: chow fed male Sprague-Dawley rats; experiment: Serum lipids, apolipoproteins and weight gain in chow fed male Sprague-Dawley rats after seven days of treatment; format: in vivo, rat
Procedure: Illustrative compounds of the invention were administered daily at a dose of 100 mg/kg to chow fed male Sprague-Dawley rats for seven days in the morning by oral gavage in 1.5% carboxymethylcellulose/0.2% Tween-20 (dosing vehicle). Animals were weighed daily. Animals were allowed free access to rodent chow and water throughout the study. After the seventh dose, animals were sacrificed in the evening and blood serum was assayed for lipoprotein cholesterol profiles, serum triglycerides, total cholesterol VLDL, LDL, and HDL cholesterol, and the ratio of HDL cholesterol to that of VLDL plus LDL cholesterol, apolipoproteins A-I, C-II, C-III, and E by immunoelectrophoresis, and percent weight gain.
The five compounds were tested in two separate experiments. In each experiment, the experimental data were normalized against a control group of rats which received the dosing vehicle alone.

3T3-L1 cells = experiment: Insulin sensitization: 14C-acetate incorporation into lipids in 3T3-L1 preadipocytes; format: cell-based; settings: preadipocytes treated 4 days; insulin-dependent (30 nM insulin); FIG. 20
Procedure: The effects of Compound A on rate of differentiation of 3T3-L1 cells from a “committed pre-adipocyte” to an “adipocyte” phenotype in the absence or presence of insulin is tested. The differentiation of 3T3-L1 cells to an adipocyte-like phenotype is highly dependent upon insulin. […] In this assay the degree of differentiation was a reflection of the rate of lipid synthesis, as measured through incorporation of ^14C-acetate over 2 hours.
3T3-L1 stem cells were induced to differentiate with dexamethasone, isobutylmethylxanthine and insulin (Green and Kehinde, 1975, Cell 5:19-27). Cells were plated in Dulbecco's modified Eagle medium containing 10% calf serum and grown to confluence. Cells were then refreshed with 10% fetal calf serum, and treated with 0.5 mM isobutylmethylxanthine and 250 nM dexamethasone, but no additional insulin, for 48 hours. […]
The preadipocytes were then treated for 4 days with various concentrations of Compound A in 5% fetal calf serum in Dulbecco's modified Eagles medium, with or without a submaximal concentration of insulin (30 nM). […] Cell were then washed with phosphate buffered saline, lysed with 0.1 N NaOH, and ^14C-acetate incorporation into lipids was determined using phase separation and liquid scintillation counting.

[3] = 100 mg/kg, 7 days, compared to control, FIG. 3
[4] = 100 mg/kg, 7 days, vs vehicle, FIG. 2
[5] = 100 mg/kg/day oral gavage, 7 days, normalized against vehicle control

Question: `CC(C)(CO)CCCCOCCCCC(C)(C)CO` [Compound A, 6-(6-hydroxy-5,5-dimethylhexyloxy)-2,2-dimethyl-hexan-1-ol] was tested. Which “change of non-HDL cholesterol (VLDL plus LDL)” value (female obese Zucker rats; one week) did it give?
Answer: +10.3%

Question: And the “increase of HDL cholesterol” value (female obese Zucker rats; one week)?
Answer: 3.9 fold

Question: And the “reduction of non-esterified fatty acids” value (female obese Zucker rats; one week)?
Answer: 52%

Question: And the “reduction of serum triglycerides” value (female obese Zucker rats; one week)?
Answer: 68%

Question: What about the serum glucose (female obese Zucker rats; one week) of the same compound?
Answer: did not induce a hypoglycemic state

Question: And the “ratio of HDL/non-HDL cholesterol” value (female obese Zucker rats; one week treatment, pre-treatment 4.2)?
Answer: 14.9

Question: And the “increase of the ratio of HDL/non-HDL cholesterol” value (female obese Zucker rats; one week, vs pre-treatment)?
Answer: 3.6 fold

Question: What about the “increase of total serum cholesterol” value (female obese Zucker rats; one week, vs pre-treatment) of the same compound?
Answer: 3.3 fold

Question: And the “increase in body weight” value (female obese Zucker rats; seven days, vehicle 6.6%)?
Answer: 5.4%

Question: And the LDL cholesterol ([1]; after one week of treatment)?
Answer: rapid and significant reduction

Question: What about the HDL ([1]; seven daily treatments) of the same compound?
Answer: HDL elevation in all treated mice

Question: And the “elevation of apolipoprotein A-I” value [2, 3]?
Answer: 16%

Question: And the “elevation of apolipoprotein E” value [2, 3]?
Answer: 46%

Question: What about the “reduction of apolipoprotein C-II” value [2, 3] of the same compound?
Answer: 20%

Question: What about the “reduction of apolipoprotein C-III” value [2, 3] of the same compound?
Answer: 16%

Question: What about the “ratio of HDL to non-HDL cholesterol (VLDL plus LDL)” value ([2]; 100 mg/kg, 7 days, control 2.6±0.2) of the same compound?
Answer: 6.2±1.0

Question: What about the “improvement in the ratio of HDL to non-HDL cholesterol” value ([2]; 100 mg/kg, 7 days, vs control) of the same compound?
Answer: 2.44 fold

Question: What about the “change in VLDL cholesterol” value ([2]; 100 mg/kg, 7 days, vs vehicle) of the same compound?
Answer: no change

Question: What about the “elevation in HDL cholesterol” value ([2]; 100 mg/kg, 7 days, vs vehicle) of the same compound?
Answer: 49%

Question: What about the “reduction in LDL cholesterol” value ([2]; 100 mg/kg, 7 days, vs vehicle) of the same compound?
Answer: 41%

Question: And the “elevation of total serum cholesterol” value [2, 4]?
Answer: 26%

Question: What about the “reduction of serum triglycerides” value [2, 4] of the same compound?
Answer: 31%

Question: What about the “percentage body weight gain” value ([2]; 100 mg/kg, after seven days, control 68.3±1.2%) of the same compound?
Answer: 63.4±1.9%

Question: What about the “HDL-Cholesterol (% change)” value [2, 5] of the same compound?
Answer: +21.1 % change

Question: And the “LDL-Cholesterol (% change)” value [2, 5]?
Answer: −27.7 % change

Question: What about the “Triglyceride (% change)” value [2, 5] of the same compound?
Answer: +7.6 % change

Question: And the “increase of 14C-acetate incorporation into lipids” value (3T3-L1 cells)?
Answer: approximately 40%
